Measurements reported in patent US20240158392A1 (Janssen Biotech, Inc., priority 2021, published 2024).

The compounds below were run against SIK2 (Homo sapiens, UniProt Q9H0K1) (assay: SIK2 Enzymatic Assay High Version 2 (High ATP)). Settings: not given.
Type: biochemical
Outline: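 At room temperature, enzyme (6 nM, 2× final) was preincubated with compound for 30 min, then 6 mM ATP and 400 μM HDAC5tide (both 2× final) were added for 2 h. ADP formed was measured by ADP-Glo Max (2 h reagent, 1 h detection) using luminescence.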

SIK2, sequence (Q9H0K1 whole entry, species assumed): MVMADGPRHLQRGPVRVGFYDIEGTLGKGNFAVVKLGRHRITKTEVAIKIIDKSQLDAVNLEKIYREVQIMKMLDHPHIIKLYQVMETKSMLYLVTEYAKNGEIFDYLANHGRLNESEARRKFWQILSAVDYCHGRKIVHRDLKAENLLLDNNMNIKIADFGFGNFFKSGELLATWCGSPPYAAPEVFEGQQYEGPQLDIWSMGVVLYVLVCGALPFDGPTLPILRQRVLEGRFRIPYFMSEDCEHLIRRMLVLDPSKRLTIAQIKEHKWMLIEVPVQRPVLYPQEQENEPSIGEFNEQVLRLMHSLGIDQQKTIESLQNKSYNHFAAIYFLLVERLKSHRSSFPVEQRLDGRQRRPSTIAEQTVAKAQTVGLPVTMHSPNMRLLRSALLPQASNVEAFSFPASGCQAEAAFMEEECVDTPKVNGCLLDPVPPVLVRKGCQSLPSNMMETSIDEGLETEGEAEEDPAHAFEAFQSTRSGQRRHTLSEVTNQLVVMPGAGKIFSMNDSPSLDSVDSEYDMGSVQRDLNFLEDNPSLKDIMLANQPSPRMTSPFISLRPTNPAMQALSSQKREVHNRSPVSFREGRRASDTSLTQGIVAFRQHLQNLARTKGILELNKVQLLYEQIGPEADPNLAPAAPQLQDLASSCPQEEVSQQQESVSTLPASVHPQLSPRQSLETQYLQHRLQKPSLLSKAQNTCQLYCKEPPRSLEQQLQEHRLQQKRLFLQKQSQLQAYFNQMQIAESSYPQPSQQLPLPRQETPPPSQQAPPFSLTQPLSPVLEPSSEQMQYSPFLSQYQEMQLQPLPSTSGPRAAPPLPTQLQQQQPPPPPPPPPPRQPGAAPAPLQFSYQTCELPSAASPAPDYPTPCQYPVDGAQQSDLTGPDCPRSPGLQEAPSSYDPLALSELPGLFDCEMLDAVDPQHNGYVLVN

Compound | IC50 [µM]
Cc1cc(-c2ccn3nc(NC(=O)C4CC4)cc3c2)c(OC[C@H]2CCN2C2CC2)cn1 [Example 574, N-[5-[5-[[(2R)-1-cyclopropylazetidin-2-yl]methoxy]-2-methyl-4-pyridyl]pyrazolo[1,5-a]pyridin-2-yl]cyclopropanecarboxamide] | 0.0804
Cc1cc(-c2cn3cc(Nc4cnn(C)c4)nc3cn2)c(O[C@H]2C[C@H]3COC[C@@H](C2)N3)cn1 [Example 322, 6-[2-methyl-5-[[(1S,5R)-3-oxa-9-azabicyclo[3.3.1]nonan-7-yl]oxy]-4-pyridyl]-N-(1-methylpyrazol-4-yl)imidazo[1,2-a]pyrazin-2-amine] | 0.0015
CNC(=O)c1cccc(Nc2cc3cc(-c4cc(C)ncc4O[C@H]4C[C@H]5COC[C@@H](C4)N5C)ccn3n2)n1 [Example 407, N-methyl-6-[[5-[2-methyl-5-[[(1S,5R,7s)-9-methyl-3-oxa-9-azabicyclo[3.3.1]nonan-7-yl]oxy]-4-pyridyl]pyrazolo[1,5-a]pyridin-2-yl]amino]pyridine-2-carboxamide] | 0.00849
Cc1cc(-c2ccn3nc(Nc4cc(C)nc(C)n4)cc3c2)c(O[C@@H]2[C@@H]3CO[C@H]2CN3)cn1 [Example 524, N-(2,6-dimethylpyrimidin-4-yl)-5-[2-methyl-5-[[(1S,4S,7R)-2-oxa-5-azabicyclo[2.2.1]heptan-7-yl]oxy]-4-pyridyl]pyrazolo[1,5-a]pyridin-2-amine] | 0.0203
CC#Cc1ccc(O[C@H]2C[C@H]3COC[C@@H](C2)N3)c(-c2ccn3nc(NC(=O)C4CC4)cc3c2)c1 [Example 479, N-[5-[2-[[(1R,5S)-3-oxa-9-azabicyclo[3.3.1]nonan-7-yl]oxy]-5-prop-1-ynyl-phenyl]pyrazolo[1,5-a]pyridin-2-yl]cyclopropanecarboxamide] | 0.0371
Cc1cc(-c2ccn3nc(Nc4cccnn4)cc3c2)c(O[C@H]2C[C@H]3COC[C@@H](C2)N3C)cn1 [Example 419, 5-[2-methyl-5-[[(1R,5S,7s)-9-methyl-3-oxa-9-azabicyclo[3.3.1]nonan-7-yl]oxy]-4-pyridyl]-N-pyridazin-3-yl-pyrazolo[1,5-a]pyridin-2-amine] | < 0.000847
Cc1cc(-c2ccn3nc(NC(=O)C4CC4)cc3c2)c(OC[C@H]2N(C)CC2(C)C)cn1 [Example 473, N-[5-[2-methyl-5-[[(2S)-1,3,3-trimethylazetidin-2-yl]methoxy]-4-pyridyl]pyrazolo[1,5-a]pyridin-2-yl]cyclopropanecarboxamide] | 0.0182
Cc1cc(-c2ccn3nc(Nc4cc(F)n(C)n4)cc3c2)c(O[C@H]2C[C@H]3COC[C@@H](C2)N3)cn1 [Example 397, N-(5-fluoro-1-methyl-pyrazol-3-yl)-5-[2-methyl-5-[[(1S,5R,7s)-3-oxa-9-azabicyclo[3.3.1]nonan-7-yl]oxy]-4-pyridyl]pyrazolo[1,5-a]pyridin-2-amine] | 0.00133
COCCNC(=O)c1ccc(Nc2cc3cc(-c4cc(C)ncc4O[C@H]4C[C@H]5COC[C@@H](C4)N5)ccn3n2)nc1 [Example 387, N-(2-methoxyethyl)-6-[[5-[2-methyl-5-[[(1S,5R,7s)-3-oxa-9-azabicyclo[3.3.1]nonan-7-yl]oxy]-4-pyridyl]pyrazolo[1,5-a]pyridin-2-yl]amino]pyridine-3-carboxamide] | 0.001
Cc1cc(-c2ccn3nc(NC(=O)C4CC4)cc3c2)c(O[C@H]2C[C@@H](N)C2)cn1 [Example 464, N-(5-(5-((1s,3s)-3-aminocyclobutoxy)-2-methylpyridin-4-yl)pyrazolo[1,5-a]pyridin-2-yl)cyclopropanecarboxamide] | 0.0116
Cc1cc(-c2ccn3nc(NC(=O)C4CC4)cc3c2)c(OCC2NCC2(F)F)cn1 (racemic) [Example 469, rac-N-[5-[5-[(3,3-difluoroazetidin-2-yl)methoxy]-2-methyl-4-pyridyl]pyrazolo[1,5-a]pyridin-2-yl]cyclopropanecarboxamide] | 0.00448
Cc1cc(-c2ccn3nc(Nc4cc(C)nc(C)n4)cc3c2)c(OCC2CCS(=O)(=O)N2)cn1 (racemic) [Example 353, (rac-)-N-(2,6-dimethylpyrimidin-4-yl)-5-[5-[(1,1-dioxo-1,2-thiazolidin-3-yl)methoxy]-2-methyl-4-pyridyl]pyrazolo[1,5-a]pyridin-2-amine] | 0.0451

Same assay, conditions: enzyme 6 nM, 6 mM ATP and 400 μM HDAC5tide (each 2× final concentration); 30 minutes pre-incubation, 2 hours; ADP-Glo Max luminescence; read-out: SIK2 high ATP IC50 (μM) (Test Example 2)

IC50 [µM] | Compound
0.157 | COc1cc(Nc2cc3cc(-c4cc(C)ncc4OCC(C)(C)O)ccn3n2)ccc1C(=O)NC1CC1 [Example 643, N-cyclopropyl-4-[[5-[5-(2-hydroxy-2-methyl-propoxy)-2-methyl-4-pyridyl]pyrazolo[1,5-a]pyridin-2-yl]amino]-2-methoxy-benzamide]
0.00339 | Cn1ccc(Nc2cc3cc(-c4cc(C#N)cnc4OC[C@@H]4CNCCO4)ccn3n2)n1 [Example 564, 5-[2-[(1-methylpyrazol-3-yl)amino]pyrazolo[1,5-a]pyridin-5-yl]-6-[[(2S)-morpholin-2-yl]methoxy]pyridine-3-carbonitrile]
0.194 | Cc1cc(-c2ccn3nc(Nc4cc(C(F)(F)F)c(C(=O)NCC(F)(F)F)cn4)cc3c2)c(OCC(C)(C)O)cn1 [Example 651, 6-[[5-[5-(2-hydroxy-2-methyl-propoxy)-2-methyl-4-pyridyl]pyrazolo[1,5-a]pyridin-2-yl]amino]-N-(2,2,2-trifluoroethyl)-4-(trifluoromethyl)pyridine-3-carboxamide]
0.00637 | Cc1cc(-c2ccn3nc(Nc4ccc(C)nn4)cc3c2)c(OC[C@@]23CN[C@@H](CO2)C3)cn1 [Example 254, 5-[2-methyl-5-[[(1R,4R)-5-oxa-2-azabicyclo[2.2.1]heptan-4-yl]methoxy]-4-pyridyl]-N-(6-methylpyridazin-3-yl)pyrazolo[1,5-a]pyridin-2-amine]
0.013 | Cc1cc(-c2ccn3nc(NC(=O)C4CC4)cc3c2)c(OC[C@@]2(O)CCN(C)C2)cn1 (single isomer, unassigned) [Example 522, (*R)—N-[5-[5-[(3-hydroxy-1-methyl-pyrrolidin-3-yl)methoxy]-2-methyl-4-pyridyl]pyrazolo[1,5-a]pyridin-2-yl]cyclopropanecarboxamide]
0.0273 | Cc1cc(-c2ccn3nc(Nc4ccc(S(=O)(=O)NC5CC5)cc4)cc3c2)c(O[C@H]2CC[C@H](O)CC2)cn1 [Example 323, N-cyclopropyl-4-[[5-[5-(4-hydroxycyclohexoxy)-2-methyl-4-pyridyl]pyrazolo[1,5-a]pyridin-2-yl]amino]benzenesulfonamide]
0.00121 | CC(C)(C#N)COc1cnc(OCC(F)F)cc1-c1ccn2nc(Nc3cccnn3)cc2c1 [Example 688, 3-[[6-(2,2-difluoroethoxy)-4-[2-(pyridazin-3-ylamino)pyrazolo[1,5-a]pyridin-5-yl]-3-pyridyl]oxy]-2,2-dimethyl-propanenitrile]
0.0152 | Cc1cc(Nc2cc3cc(-c4cc(OC(F)F)ncc4OCC(C)(C)C(N)=O)ccn3n2)nc(C)n1 [Example 727, 3-[[6-(difluoromethoxy)-4-[2-[(2,6-dimethylpyrimidin-4-yl)amino]pyrazolo[1,5-a]pyridin-5-yl]-3-pyridyl]oxy]-2,2-dimethyl-propanamide]
0.00338 | Cc1cc(-c2ccn3nc(Nc4cc(C)nc(C)n4)cc3c2)c(O[C@H]2CC[C@H](S(C)(=O)=O)CC2)cn1 [Example 266, N-(2,6-dimethylpyrimidin-4-yl)-5-[2-methyl-5-(4-methylsulfonylcyclohexoxy)-4-pyridyl]pyrazolo[1,5-a]pyridin-2-amine]
0.0035 | Cc1cc(-c2ccn3nc(Nc4cc(C)nc(C)n4)cc3c2)c(OC[C@H]2CCS(=O)(=O)C2)cn1 (single isomer, unassigned) [Example 363, (*R)—N-(2,6-dimethylpyrimidin-4-yl)-5-[5-[(1,1-dioxothiolan-3-yl)methoxy]-2-methyl-4-pyridyl]pyrazolo[1,5-a]pyridin-2-amine]
0.0351 | CCNC(=O)c1c(OC)cc(Nc2cc3cc(-c4cc(C)ncc4O[C@H]4CC[C@H](O)CC4)ccn3n2)cc1OC [Example 243, N-ethyl-4-[[5-[5-(4-hydroxycyclohexoxy)-2-methyl-4-pyridyl]pyrazolo[1,5-a]pyridin-2-yl]amino]-2,6-dimethoxy-benzamide]
< 0.000847 | CO[C@H]1CN(C)C[C@@H]1COc1cnc(C)cc1-c1ccn2nc(NC(=O)C3CC3)cc2c1 (single isomer, unassigned) [Example 461, Trans-*R, *R—N-[5-[5-[(4-methoxy-1-methyl-pyrrolidin-3-yl)methoxy]-2-methyl-4-pyridyl]pyrazolo[1,5-a]pyridin-2-yl]cyclopropanecarboxamide]
0.0275 | Cc1cc(-c2ccn3nc(Nc4cccnn4)cc3c2)c(OC[C@@H]2CN[C@H](C)CO2)cn1 [Example 513, 5-[2-methyl-5-[[(2S,5R)-5-methylmorpholin-2-yl]methoxy]-4-pyridyl]-N-pyridazin-3-yl-pyrazolo[1,5-a]pyridin-2-amine]
0.0206 | CC(C)(C#N)COc1cnc(OC(F)F)cc1-c1ccn2nc(Nc3cc(N)cnn3)cc2c1 [Example 704, 3-[[4-[2-[(5-aminopyridazin-3-yl)amino]pyrazolo[1,5-a]pyridin-5-yl]-6-(difluoromethoxy)-3-pyridyl]oxy]-2,2-dimethyl-propanenitrile]
0.0329 | Cc1cc(-c2ccn3nc(Nc4ccc(S(=O)(=O)N(C)C)cc4)cc3c2)c(O[C@H]2CC[C@H](O)CC2)cn1 [Example 324, 4-[[5-[5-(4-hydroxycyclohexoxy)-2-methyl-4-pyridyl]pyrazolo[1,5-a]pyridin-2-yl]amino]-N,N-dimethyl-benzenesulfonamide]
0.0831 | CC#Cc1cc(-c2ccn3nc(Nc4cc(C)nc(C)n4)cc3c2)c(OCC(C)(C)C#N)cn1 [Example 670, 3-[[4-[2-[(2,6-dimethylpyrimidin-4-yl)amino]pyrazolo[1,5-a]pyridin-5-yl]-6-prop-1-ynyl-3-pyridyl]oxy]-2,2-dimethyl-propanenitrile]
